The source of these data is patent US12281113B2, “Crystalline forms of a KRas G12C inhibitor” (MIRATI THERAPEUTICS, INC., priority 2020, dated 2025).

Values joined by “and” are separate entries in the source; they are usually repeats but may differ in a detail not shown here. Equal entries are not always repeated.

Holding throughout (type): physicochemical
Data set [1] is described as follows: 1 month stability of MRTX849 crystalline vs amorphous, HPLC evaluation after accelerated stress conditions.
The nature of data set [2]: Comparative thermal stability study of Form A, Form B and amorphous MRTX849 Drug Substance. As to conditions: for change in appearance on storage: two weeks at 60° C., two months at 25° C./60% RH and 40° C./75% RH. The protocol:
(§1) 40° C./75% RH and 60° C. in loosely capped, foil-wrapped small glass vials. Data was obtained for up to two weeks for samples stored at 60° C. and up to two months for samples stored at 25° C./60% RH and 40° C./75% RH. In addition, data was generated from photostability study performed on all three lots as a part of the protocol.

The nature of data set [3]: Photostability study (1/2 ICH conditions). The protocol:
as §1

Data set [4] in a line: Dynamic vapor sorption isotherm, 25° C., 0-90% RH. The note with it: for weight gain (DVS): sorption. The protocol: Sorption isotherms of crystalline Form A were obtained using a SMS GVS Intrinsic moisture sorption analyzer, controlled by GVS Intrinsic Control software. The sample temperature was maintained at 25° C. by the instrument controls. The humidity was controlled by mixing streams of dry and wet nitrogen, with a total flow rate of 200 ml/min. The relative humidity was measured by a calibrated Rotronic probe (dynamic range of 1.0-100% RH), located near the sample. The weight change (mass relaxation) of the sample as a function of % RH was constantly monitored by a microbalance (accuracy ±0.005 mg).
The sample was loaded and unloaded at 40% RH and 25° C. (typical room conditions). A moisture sorption isotherm was performed as outlined below (2 scans per complete cycle). The standard isotherm was performed at 25° C. at 10% RH intervals over a 0-90% RH range. A double cycle (4 scans) was carried out. Data analysis was carried out within Microsoft Excel using the DVS Analysis Suite.
Sorption isotherms of crystalline Form B were obtained using a SMS DVS Intrinsic moisture sorption analyzer, controlled by DVS Intrinsic Control software. The sample temperature was maintained at 25° C. by the instrument controls. The humidity was controlled by mixing streams of dry and wet nitrogen, with a total flow rate of 200 ml/min. The relative humidity was measured by a calibrated Rotronic probe (dynamic range of 1.0-100% RH), located near the sample. The weight change, (mass relaxation) of the sample as a function of % RH was constantly monitored by a microbalance (accuracy ±0.005 mg).
Briefly, a sample of crystalline Form B was placed in a tared mesh stainless steel basket under ambient conditions. The sample was loaded and unloaded at 40% RH and 25° C. (typical room conditions). A moisture sorption isotherm was performed as outlined below (2 scans per complete cycle). The standard isotherm was performed at 25° C. at 10% RH intervals over a 0-90% RH range. A double cycle (4 scans) was carried out. Data analysis was carried out within Microsoft Excel using the DVS Analysis Suite.

Data set [5] in a line: Dynamic vapor sorption, 5% to 95% RH. As for the experimental part:
Vapor Sorption isotherms were obtained using a Surface Measurement System (SMS) DVS Intrinsic moisture sorption analyzer, controlled by DVS Intrinsic Control software. Samples were not dried prior to analysis. Sorption and desorption data were collected over a range of 5%-95% relative humidity (RH) at 10% RH increments under a nitrogen purge. The equilibrium criterion used for analysis was less than 0.0100% weight change in 5 minutes with a maximum equilibration time of 3 hours.
Vapor sorption data were collected on a Surface Measurement System DVS Intrinsic instrument. Samples were not dried prior to analysis. Sorption and desorption data were collected over a range from 5% to 95% RH at 10% RH increments under a nitrogen purge. The equilibrium criterion used for analysis was less than 0.0100% weight change in 5 minutes with a maximum equilibration time of 3 hours.

Setting [6] is: 0.5 × ICH: Vis Stress at 600 klux-hrs, UV Stress at 100 W-hr/m^2.

Consider `C=C(F)C(=O)N1CCN(c2nc(OC[C@@H]3CCCN3C)nc3c2CCN(c2cccc4cccc(Cl)c24)C3)C[C@@H]1CC#N` [MRTX849 crystalline, 2-[(2S)-4-[7-(8-chloro-1-naphthyl)-2-[[(2S)-1-methylpyrrolidin-2-yl]methoxy]-6,8-dihydro-5H-pyrido[3,4-d]pyrimidin-4-yl]-1-(2-fluoroprop-2-enoyl)piperazin-2-yl]acetonitrile], for which the “Total impurities (%)” value in data set [1] (40° C./75% RH, 1 month) was determined as 0.77%.
For `C=C(F)C(=O)N1CCN(c2nc(OC[C@@H]3CCCN3C)nc3c2CCN(c2cccc4cccc(Cl)c24)C3)C[C@@H]1CC#N` [Form B, 2-[(2S)-4-[7-(8-chloro-1-naphthyl)-2-[[(2S)-1-methylpyrrolidin-2-yl]methoxy]-6,8-dihydro-5H-pyrido[3,4-d]pyrimidin-4-yl]-1-(2-fluoroprop-2-enoyl)piperazin-2-yl]acetonitrile Form B], the Appearance entry in data set [2] (1 Month 25° C./60% RH), in data set [2] (1 Month 40° C./75% RH), in data set [2] (1 Week 60° C.), in data set [2] (2 Months 25° C./60% RH), in data set [2] (2 Months 40° C./75% RH) and in data set [2] (2 Weeks 40° C./75% RH) was “Creamy” throughout. Also, the Appearance result in data set [2] (2 Weeks 60° C.) and in data set [2] (Initial T(0)) was “Creamy” throughout. Also, the Total impurities was 0.23% in data set [2] (1 Month 25° C./60% RH); 0.35% in data set [2] (1 Month 40° C./75% RH); 0.31% in data set [2] (1 Week 60° C.); 0.4% and 0.44% in data set [2] (2 Months 40° C./75% RH); 0.37% in data set [2] (2 Weeks 40° C./75% RH); 0.4% in data set [2] (2 Weeks 60° C.). For the same compound, the Total impurities in data set [2] (Initial T(0)) turned out to be 0.3%. The “change in appearance on storage” value in data set [2] was “no change in appearance”. For the same compound, the Purity in data set [3] (setting [6]) was determined as 98.41; in data set [3] (Control), 99.74; in data set [3] (T(0)), 99.75. Besides, the “weight change (DVS) on desorption” value in data set [4] (at 50% RH after desorption from 70% RH) is listed as 0.4%; in data set [4] (at 70% RH after desorption from 90% RH), 2.2%. The “weight gain (DVS)” value in data set [4] (at 60% RH) was “about 0.6%”; in data set [4] (at 70% RH), 2.9%; in data set [4] (at 90% RH), 2.5%; in data set [5] (between 5% and 55% RH), 0.2 wt %. For the same compound, in data set [5] (5% to 95% RH), the “water corresponding to DVS weight gain” value is 1.3 mol water. Also, in data set [5] (between 55% and 95% RH), the “weight gain increase (DVS)” value is given as 3.5%.
Take `C=C(F)C(=O)N1CCN(c2nc(OC[C@@H]3CCCN3C)nc3c2CCN(c2cccc4cccc(Cl)c24)C3)C[C@@H]1CC#N` [Form E, 2-[(2S)-4-[7-(8-chloro-1-naphthyl)-2-[[(2S)-1-methylpyrrolidin-2-yl]methoxy]-6,8-dihydro-5H-pyrido[3,4-d]pyrimidin-4-yl]-1-(2-fluoroprop-2-enoyl)piperazin-2-yl]acetonitrile Form E]: the “gradual weight gain (DVS)” value in data set [5] (between 5% to 96% RH) came out at 1.2%.
With `C=C(F)C(=O)N1CCN(c2nc(OC[C@@H]3CCCN3C)nc3c2CCN(c2cccc4cccc(Cl)c24)C3)C[C@@H]1CC#N` [API standard], the “Total impurities (%)” value in data set [1] (API standard) was determined as 0.71%.
In the case of `C=C(F)C(=O)N1CCN(c2nc(OC[C@@H]3CCCN3C)nc3c2CCN(c2cccc4cccc(Cl)c24)C3)C[C@@H]1CC#N` [Form A, 2-[(2S)-4-[7-(8-chloro-1-naphthyl)-2-[[(2S)-1-methylpyrrolidin-2-yl]methoxy]-6,8-dihydro-5H-pyrido[3,4-d]pyrimidin-4-yl]-1-(2-fluoroprop-2-enoyl)piperazin-2-yl]acetonitrile Form A], the Appearance entry in data set [2] (1 Month 25° C./60% RH), in data set [2] (1 Month 40° C./75% RH), in data set [2] (1 Week 60° C.), in data set [2] (2 Months 25° C./60% RH), in data set [2] (2 Months 40° C./75% RH) and in data set [2] (2 Weeks 40° C./75% RH) was “Off-white” throughout. In addition, the Appearance entry in data set [2] (2 Weeks 60° C.) and in data set [2] (Initial T(0)) was “Off-white” throughout. The Total impurities in data set [2] (1 Month 25° C./60% RH) is 0.98%; in data set [2] (1 Month 40° C./75% RH), 1.04%; in data set [2] (1 Week 60° C.) it was 1.27%; in data set [2] (2 Months 25° C./60% RH), 1.06%; in data set [2] (2 Months 40° C./75% RH), 1.2% and 1.16%; in data set [2] (2 Weeks 40° C./75% RH), 1.07%. In addition, the Total impurities in data set [2] (2 Weeks 60° C.) is 1.4% and 1.43%. The “change in appearance on storage” value in data set [2] was “no change in appearance”. For the same compound, the Purity was found to be 96.74 in data set [3] (setting [6]), 98.91 in data set [3] (Control) and 98.86 in data set [3] (T(0)). Also, the figures for the “weight gain (DVS)” value in data set [4] (at 40% RH) and in data set [4] (at 90% RH) were “about 0.1%” and 0.6%, respectively. Besides, the “observed weight gain (DVS)” value in data set [5] (from 5% to 90% RH) came to 0.4%.
Regarding `C=C(F)C(=O)N1CCN(c2nc(OC[C@@H]3CCCN3C)nc3c2CCN(c2cccc4cccc(Cl)c24)C3)C[C@@H]1CC#N` [Amorphous, 2-[(2S)-4-[7-(8-chloro-1-naphthyl)-2-[[(2S)-1-methylpyrrolidin-2-yl]methoxy]-6,8-dihydro-5H-pyrido[3,4-d]pyrimidin-4-yl]-1-(2-fluoroprop-2-enoyl)piperazin-2-yl]acetonitrile], the “Total impurities (%)” value in data set [1] (25° C./60% RH, 1 month) is on record as 2.21%; in data set [1] (40° C./75% RH, 1 month, open), 2.98%; in data set [1] (40° C./75% RH, 1 month, listed as MRTX849 amorphous), 3.28%. For the same compound, the Appearance entry in data set [2] (1 Month 25° C./60% RH) is “Tan Solid”; in data set [2] (1 Month 40° C./75% RH), “Tan Solid”; in data set [2] (1 Week 60° C.), “Brown Solid”; in data set [2] (2 Months 25° C./60% RH), “Tan Solid”; in data set [2] (2 Months 40° C./75% RH), “Light Brown”; in data set [2] (2 Weeks 40° C./75% RH), “Tan Solid”. Moreover, the Appearance result in data set [2] (2 Weeks 60° C.) was “Brown Solid”; in data set [2] (Initial T(0)), “Tan Solid”. The Total impurities came to 1.42% in data set [2] (1 Month 25° C./60% RH); 2.36% in data set [2] (1 Month 40° C./75% RH); 5.93% in data set [2] (1 Week 60° C.); 1.86% in data set [2] (2 Months 25° C./60% RH); 5.73% in data set [2] (2 Months 40° C./75% RH); 5.7% in data set [2] (2 Months 40° C./75% RH, listed as amorphous material). For the same compound, the Total impurities in data set [2] (2 Weeks 40° C./75% RH) was determined as 1.95%; in data set [2] (2 Weeks 60° C.) it was 9.89%; in data set [2] (2 Weeks 60° C., listed as amorphous material) it was 9.9%; in data set [2] (Initial T(0), listed as amorphous material) it was 1.4%. In data set [2] (60° C. condition and after two months at 40° C./75% RH), the “Color change on storage” value was “changed from tan to brown/light brown”. Besides, the Purity in data set [3] (setting [6]) is recorded as 91.25; in data set [3] (Control), 98.42; in data set [3] (T(0)), 98.59.
